From US6737383B1, “Herbicidal oxadiazolidines” (priority 1999, dated 2004)

Assays:
[1] = test system: cocklebur; experiment: Test B pre/postemergence cocklebur; type: in vivo, Xanthium strumarium; settings: for Cocklebur plant response rating: scale of 0 to 10 where 0 is no effect and 10 is complete control
How it was run: (§1)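 Test chemicals in a non-phytotoxic solvent mixture with surfactant were sprayed preemergence onto planted seeds and postemergence onto plants 2 to 18 cm tall (1- to 4-leaf stage). After twelve to sixteen days in a greenhouse, injury was visually rated against untreated controls from 0 (no effect) to 10 (complete control).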

[2] = test system: corn; experiment: Test B pre/postemergence corn; type: in vivo, Zea mays; settings: for Corn plant response rating: scale of 0 to 10 where 0 is no effect and 10 is complete control
How it was run: as §1

[3] = test system: crabgrass; experiment: Test B pre/postemergence crabgrass; type: in vivo, Digitaria sanguinalis; settings: for Crabgrass plant response rating: scale of 0 to 10 where 0 is no effect and 10 is complete control
How it was run: as §1

[4] = test system: giant foxtail; experiment: Test B pre/postemergence giant foxtail; type: in vivo, Setaria faberii; settings: for Giant foxtail plant response rating: scale of 0 to 10 where 0 is no effect and 10 is complete control
How it was run: as §1

[5] = test system: morningglory; experiment: Test B pre/postemergence morningglory; type: in vivo, Ipomoea hederacea; settings: for Morningglory plant response rating: scale of 0 to 10 where 0 is no effect and 10 is complete control
How it was run: as §1

[6] = test system: pigweed; experiment: Test B pre/postemergence pigweed; type: in vivo, Amaranthus retroflexus; settings: for Redroot pigweed plant response rating: scale of 0 to 10 where 0 is no effect and 10 is complete control
How it was run: as §1

[7] = test system: rape; experiment: Test B pre/postemergence rape; type: in vivo, Brassica napus; settings: for Rape plant response rating: scale of 0 to 10 where 0 is no effect and 10 is complete control
How it was run: as §1

[8] = test system: soybean; experiment: Test B pre/postemergence soybean; type: in vivo, Glycine max; settings: for Soybean plant response rating: scale of 0 to 10 where 0 is no effect and 10 is complete control
How it was run: as §1

[9] = test system: sugar beet; experiment: Test B pre/postemergence sugar beet; type: in vivo, Beta vulgaris; settings: for Sugarbeets plant response rating: scale of 0 to 10 where 0 is no effect and 10 is complete control
How it was run: as §1

[10] = test system: velvetleaf; experiment: Test B pre/postemergence velvetleaf; type: in vivo, Abutilon theophrasti; settings: for Velvetleaf plant response rating: scale of 0 to 10 where 0 is no effect and 10 is complete control
How it was run: as §1

[11] = test system: wheat; experiment: Test B pre/postemergence wheat; type: in vivo, Triticum aestivum; settings: for Wheat plant response rating: scale of 0 to 10 where 0 is no effect and 10 is complete control
How it was run: as §1

[12] = test system: wild oat; experiment: Test B pre/postemergence wild oat; type: in vivo, Avena fatua; settings: for Wild oats plant response rating: scale of 0 to 10 where 0 is no effect and 10 is complete control
How it was run: as §1

[13] = test system: purple nutsedge; experiment: Test B pre/postemergence purple nutsedge; type: in vivo, Cyperus rotundus; settings: for Nutsedge plant response rating: scale of 0 to 10 where 0 is no effect and 10 is complete control
How it was run: as §1

[14] = test system: rice; experiment: Test B flood test rice; type: in vivo, Oryza sativa; settings: Pre-emergence
How it was run: (§2)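 Each value is a visual injury score relative to controls, with 10 meaning complete control and 0 no effect. Evaluation took place twelve to sixteen days after the 2-leaf-stage plants were treated and kept in the greenhouse.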

[15] = test system: duck salad; experiment: Test B flood test duck salad; type: in vivo, Heteranthera limosa; settings: Pre-emergence
How it was run: as §2

[16] = test system: bamyardgrass; experiment: Test B flood test barnyardgrass; type: in vivo, Echinochloa crus-galli; settings: Pre-emergence
How it was run: as §2

[17] = Postemergence, Rate 125 g/ha, scale 0 to 10, 0 is no effect, 10 is complete control
[18] = Preemergence, Rate 62 g/ha, scale 0 to 10 (0 no effect, 10 complete control)
[19] = Rate 500 g/ha, Postemergence, scale 0 to 10, 0 no effect, 10 complete control
[20] = Rate 62 g/ha, flood test species, visual evaluation after twelve to sixteen days
[21] = Rate 125 g/ha, flood test species, scale 0 to 10 where 0 is no effect and 10 is complete control
[22] = Rate 250 g/ha, flood-test species, scale 0 to 10, 0 is no effect, 10 is complete control
[23] = Rate 500 g/ha, flood test species, scale 0 to 10 (0 no effect, 10 complete control)

CC(C)N(C(=O)n1oc(=O)n(C2CCCCCC2)c1=O)c1ccccc1 [Compound 341]
Plant response rating, Cocklebur [1, 17]: 0
Plant response rating, Cocklebur [1, 18]: 0
Cocklebur plant response rating (0 to 10 scale) ([1]; Preemergence, Rate 125 g/ha): 0
Cocklebur plant response rating ([1]; Preemergence, Rate 250 g/ha): 0
Cocklebur plant response rating ([1]; Preemergence, Rate 500 g/ha): 0
Cocklebur plant response rating ([1]; Rate 62 g/ha, Postemergence): 0
Plant response rating, Corn [2, 17]: 0
Plant response rating, Corn [2, 18]: 0
Corn plant response rating (0 to 10 scale) ([2]; Preemergence, Rate 125 g/ha): 0
Corn plant response rating ([2]; Preemergence, Rate 250 g/ha): 0
Corn plant response rating ([2]; Preemergence, Rate 500 g/ha): 0
Corn plant response rating ([2]; Rate 62 g/ha, Postemergence): 0
Plant response rating, Corn [2, 19]: 0
Plant response rating, Crabgrass [3, 17]: 0
Plant response rating, Crabgrass [3, 18]: 2
Crabgrass plant response rating (0 to 10 scale) ([3]; Preemergence, Rate 125 g/ha): 2
Crabgrass plant response rating ([3]; Preemergence, Rate 250 g/ha): 2
Crabgrass plant response rating ([3]; Preemergence, Rate 500 g/ha): 8
Crabgrass plant response rating ([3]; Rate 62 g/ha, Postemergence): 0
Plant response rating, Crabgrass [3, 19]: 2
Plant response rating, Giant foxtail [4, 17]: 0
Plant response rating, Giant foxtail [4, 18]: 9
Giant foxtail plant response rating (0 to 10 scale) ([4]; Preemergence, Rate 125 g/ha): 9
Giant foxtail plant response rating ([4]; Preemergence, Rate 250 g/ha): 10
Giant foxtail plant response rating ([4]; Preemergence, Rate 500 g/ha): 10
Giant foxtail plant response rating ([4]; Rate 62 g/ha, Postemergence): 0
Plant response rating, Giant foxtail [4, 19]: 2
Plant response rating, Morningglory [5, 17]: 7
Plant response rating, Morningglory [5, 18]: 0
Morningglory plant response rating (0 to 10 scale) ([5]; Preemergence, Rate 125 g/ha): 0
Morningglory plant response rating ([5]; Preemergence, Rate 250 g/ha): 0
Morningglory plant response rating ([5]; Preemergence, Rate 500 g/ha): 0
Morningglory plant response rating ([5]; Rate 62 g/ha, Postemergence): 7
Plant response rating, Morningglory [5, 19]: 10
Plant response rating, Redroot pigweed [6, 17]: 0
Plant response rating, Redroot pigweed [6, 18]: 0
Redroot pigweed plant response rating (0 to 10 scale) ([6]; Preemergence, Rate 125 g/ha): 0
Redroot pigweed plant response rating ([6]; Preemergence, Rate 250 g/ha): 0
Redroot pigweed plant response rating ([6]; Preemergence, Rate 500 g/ha): 8
Redroot pigweed plant response rating ([6]; Rate 62 g/ha, Postemergence): 0
Plant response rating, Redroot pigweed [6, 19]: 6
Plant response rating, Rape [7, 17]: 0
Plant response rating, Rape [7, 18]: 0
Rape plant response rating (0 to 10 scale) ([7]; Preemergence, Rate 125 g/ha): 0
Rape plant response rating ([7]; Preemergence, Rate 250 g/ha): 0
Rape plant response rating ([7]; Preemergence, Rate 500 g/ha): 0
Rape plant response rating ([7]; Rate 62 g/ha, Postemergence): 0
Plant response rating, Rape [7, 19]: 2
Plant response rating, Soybean [8, 17]: 2
Plant response rating, Soybean [8, 18]: 0
Soybean plant response rating (0 to 10 scale) ([8]; Preemergence, Rate 125 g/ha): 0
Soybean plant response rating ([8]; Preemergence, Rate 250 g/ha): 0
Soybean plant response rating ([8]; Preemergence, Rate 500 g/ha): 0
Soybean plant response rating ([8]; Rate 62 g/ha, Postemergence): 1
Plant response rating, Soybean [8, 19]: 3
Plant response rating, Sugarbeets [9, 17]: 0
Plant response rating, Sugarbeets [9, 18]: 0
Sugarbeets plant response rating (0 to 10 scale) ([9]; Preemergence, Rate 125 g/ha): 0
Sugarbeets plant response rating ([9]; Preemergence, Rate 250 g/ha): 0
Sugarbeets plant response rating ([9]; Preemergence, Rate 500 g/ha): 0
Sugarbeets plant response rating ([9]; Rate 62 g/ha, Postemergence): 0
Plant response rating, Sugarbeets [9, 19]: 0
Plant response rating, Velvetleaf [10, 17]: 0
Plant response rating, Velvetleaf [10, 18]: 0
Velvetleaf plant response rating (0 to 10 scale) ([10]; Preemergence, Rate 125 g/ha): 0
Velvetleaf plant response rating ([10]; Preemergence, Rate 250 g/ha): 0
Velvetleaf plant response rating ([10]; Preemergence, Rate 500 g/ha): 2
Velvetleaf plant response rating ([10]; Rate 62 g/ha, Postemergence): 0
Plant response rating, Velvetleaf [10, 19]: 2
Plant response rating, Wheat [11, 17]: 0
Plant response rating, Wheat [11, 18]: 0
Wheat plant response rating (0 to 10 scale) ([11]; Preemergence, Rate 125 g/ha): 0
Wheat plant response rating ([11]; Preemergence, Rate 250 g/ha): 0
Wheat plant response rating ([11]; Preemergence, Rate 500 g/ha): 0
Wheat plant response rating ([11]; Rate 62 g/ha, Postemergence): 0
Plant response rating, Wheat [11, 19]: 0
Plant response rating, Wild oats [12, 17]: 0
Plant response rating, Wild oats [12, 18]: 0
Wild oats plant response rating (0 to 10 scale) ([12]; Preemergence, Rate 125 g/ha): 0
Wild oats plant response rating ([12]; Preemergence, Rate 250 g/ha): 0
Wild oats plant response rating ([12]; Preemergence, Rate 500 g/ha): 2
Wild oats plant response rating ([12]; Rate 62 g/ha, Postemergence): 0
Plant response rating, Wild oats [12, 19]: 3
Plant response rating, Nutsedge [13, 17]: 0
Plant response rating, Nutsedge [13, 18]: 0
Nutsedge plant response rating (0 to 10 scale) ([13]; Preemergence, Rate 125 g/ha): 0
Nutsedge plant response rating ([13]; Preemergence, Rate 250 g/ha): 0
Nutsedge plant response rating ([13]; Preemergence, Rate 500 g/ha): 0
Nutsedge plant response rating ([13]; Rate 62 g/ha, Postemergence): 0
Plant response rating, Nutsedge [13, 19]: 0
Plant response rating, Rice (0 to 10 scale, 0 is no effect, 10 is complete control) [14, 20]: 0
Rice plant response rating [14, 21]: 0
Rice plant response rating [14, 22]: 0
Rice plant response rating [14, 23]: 2
Plant response rating, Ducksalad (0 to 10 scale, 0 is no effect, 10 is complete control) [15, 20]: 0
Ducksalad plant response rating [15, 21]: 0
Ducksalad plant response rating [15, 22]: 0
Ducksalad plant response rating [15, 23]: 3
Plant response rating, Barnyardgrass (0 to 10 scale, 0 is no effect, 10 is complete control) [16, 20]: 2
Barnyardgrass plant response rating [16, 21]: 8
Barnyardgrass plant response rating [16, 22]: 9
Barnyardgrass plant response rating [16, 23]: 9
